Assay results reported in patent publication US10221139B2, “Inhibitors of histone demethylases” (Gilead Sciences, Inc., priority 2012, dated 2019).

Tests used:
Format in all cases: biochemical
FBXL10 (KDM2B) = target: T1, FBXL10 (KDM2B) (Homo sapiens, UniProt Q8NHM5); assay: Histone lysine demethylase AlphaLISA assay, FBXL10; conditions: substrate BH3K36M2
T1 construct: 1-650; purchased BPS, Bioscience, US; host or cells: Bac (baculovirus)
T1 sequence (Q8NHM5 1-650): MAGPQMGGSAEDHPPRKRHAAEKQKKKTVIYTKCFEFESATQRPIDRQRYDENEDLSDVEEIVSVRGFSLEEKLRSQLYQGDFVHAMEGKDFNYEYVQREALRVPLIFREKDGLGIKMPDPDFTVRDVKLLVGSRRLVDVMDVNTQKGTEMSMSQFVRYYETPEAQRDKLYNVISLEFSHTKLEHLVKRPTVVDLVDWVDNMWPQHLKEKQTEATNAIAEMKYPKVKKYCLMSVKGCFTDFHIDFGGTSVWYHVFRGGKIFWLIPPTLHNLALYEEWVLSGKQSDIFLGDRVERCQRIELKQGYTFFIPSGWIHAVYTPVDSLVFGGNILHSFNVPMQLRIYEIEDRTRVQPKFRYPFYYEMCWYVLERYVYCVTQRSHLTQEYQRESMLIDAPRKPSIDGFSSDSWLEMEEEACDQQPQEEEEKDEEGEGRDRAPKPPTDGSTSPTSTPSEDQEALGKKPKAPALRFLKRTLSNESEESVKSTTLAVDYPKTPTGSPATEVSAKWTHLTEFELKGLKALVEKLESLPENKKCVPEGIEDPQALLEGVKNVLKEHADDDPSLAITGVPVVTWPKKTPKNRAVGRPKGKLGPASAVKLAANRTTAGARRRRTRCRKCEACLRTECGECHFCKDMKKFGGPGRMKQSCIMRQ
Protocol: (§1) Example 2: Histone Lysine Demethylase AlphaLISA Assays for IC50 Value Determination
(§2) Assays are performed analogously to the protocol described by Perkin Elmer (Roy et al. Perkin Elmer Technical Note: AlphaLISA #12, April 2011).
(§3) Enzymes are dissolved in enzyme buffer and incubated for 10 min before 5 μL is added to 5 μL 3% DMSO solutions of compounds in enzyme buffer. Incubated for another 10 minutes, before 5 μL substrate solution is added and the reaction mixture is incubated at room temperature for the given period. 10 μL acceptor beads, suspended at given dilutions in Epigenetic Buffer (Perkin Elmer AL008) from stock, are added and the suspension is incubated 60 minutes in the dark at room temperature, before 10 μL suspension (at the given dilutions in Epigenetic Buffer) of streptavidin donor beads (Perkin Elmer 6760002) in Epigenetic Buffer is added. After incubation at room temperature in the dark the plates are read. Reaction conditions are seen in Table 2b.

JMJD3 (KDM6B) = target: T2, JMJD3 (KDM6B) (Homo sapiens, UniProt O15054); assay: Histone lysine demethylase AlphaLISA assay, JMJD3; conditions: substrate BK27M3
T2 construct: 1043-end; purchased BPS; host or cells: Bac (baculovirus)
Protocol: as §1, §2, §3

JMJD2A (KDM4A) = target: T3, JMJD2A (KDM4A) (Homo sapiens, UniProt O75164); assay: Histone lysine demethylase AlphaLISA assay, JMJD2A; conditions: substrate BK9M3
T3 construct: 1-350; purchased BPS, Bioscience, US; host or cells: E. coli
T3 sequence (O75164 1-350): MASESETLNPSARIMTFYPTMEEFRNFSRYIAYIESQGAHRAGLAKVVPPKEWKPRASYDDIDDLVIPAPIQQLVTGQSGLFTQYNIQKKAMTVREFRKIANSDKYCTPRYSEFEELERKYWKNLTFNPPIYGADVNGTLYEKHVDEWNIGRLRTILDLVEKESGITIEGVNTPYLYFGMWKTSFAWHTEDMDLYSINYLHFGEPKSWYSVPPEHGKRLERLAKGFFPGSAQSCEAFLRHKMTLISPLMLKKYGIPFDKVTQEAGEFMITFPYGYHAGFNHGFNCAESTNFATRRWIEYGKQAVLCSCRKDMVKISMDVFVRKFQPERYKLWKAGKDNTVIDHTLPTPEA
Protocol: as §1, §2, §3

UTX (KDM6A) = target: T4, UTX (KDM6A) (Homo sapiens, UniProt O15550); assay: Histone lysine demethylase AlphaLISA assay, UTX; conditions: substrate BK27M3
T4 construct: 919-1401; host or cells: E. coli
Method in brief: (§4)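 Per-enzyme reaction conditions apply; each enzyme sees compound for 10 min ahead of substrate addition. Bead-based AlphaLISA detection at room temperature, protected from light, gives the IC50.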

GASC1 (KDM4C, JMJD2C) = target: T5, GASC1 (KDM4C, JMJD2C) (Homo sapiens, UniProt Q9H3R0); assay: Histone lysine demethylase AlphaLISA assay, GASC1; conditions: substrate BK9M3
T5 construct: 1-349; host or cells: E. coli
T5 sequence (Q9H3R0 1-349): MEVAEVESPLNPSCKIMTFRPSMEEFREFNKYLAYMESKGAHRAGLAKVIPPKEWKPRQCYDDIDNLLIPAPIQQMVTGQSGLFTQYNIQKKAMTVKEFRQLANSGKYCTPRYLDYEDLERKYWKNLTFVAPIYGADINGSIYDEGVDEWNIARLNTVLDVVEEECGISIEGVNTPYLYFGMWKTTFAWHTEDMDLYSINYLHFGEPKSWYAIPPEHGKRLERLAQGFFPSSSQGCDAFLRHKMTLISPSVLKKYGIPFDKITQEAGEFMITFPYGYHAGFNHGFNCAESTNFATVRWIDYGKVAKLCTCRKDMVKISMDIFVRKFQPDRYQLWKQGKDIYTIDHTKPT
Method in brief: as §4

JARID1C (KDM5C) = target: T6, JARID1C (KDM5C) (Homo sapiens, UniProt P41229); assay: Histone lysine demethylase AlphaLISA assay, JARID1C; conditions: substrate H3K4M3B
T6 construct: 2-1560; purchased BPS; host or cells: Bac (baculovirus)
Protocol: as §1, §2, §3

PLU1 (KDM5B) = target: T7, PLU1 (KDM5B) (Homo sapiens, UniProt Q9UGL1); assay: Histone lysine demethylase AlphaLISA assay, PLU1; conditions: substrate H3K4M3B
T7 construct: 1-809; host or cells: E. coli
T7 sequence (Q9UGL1 1-809): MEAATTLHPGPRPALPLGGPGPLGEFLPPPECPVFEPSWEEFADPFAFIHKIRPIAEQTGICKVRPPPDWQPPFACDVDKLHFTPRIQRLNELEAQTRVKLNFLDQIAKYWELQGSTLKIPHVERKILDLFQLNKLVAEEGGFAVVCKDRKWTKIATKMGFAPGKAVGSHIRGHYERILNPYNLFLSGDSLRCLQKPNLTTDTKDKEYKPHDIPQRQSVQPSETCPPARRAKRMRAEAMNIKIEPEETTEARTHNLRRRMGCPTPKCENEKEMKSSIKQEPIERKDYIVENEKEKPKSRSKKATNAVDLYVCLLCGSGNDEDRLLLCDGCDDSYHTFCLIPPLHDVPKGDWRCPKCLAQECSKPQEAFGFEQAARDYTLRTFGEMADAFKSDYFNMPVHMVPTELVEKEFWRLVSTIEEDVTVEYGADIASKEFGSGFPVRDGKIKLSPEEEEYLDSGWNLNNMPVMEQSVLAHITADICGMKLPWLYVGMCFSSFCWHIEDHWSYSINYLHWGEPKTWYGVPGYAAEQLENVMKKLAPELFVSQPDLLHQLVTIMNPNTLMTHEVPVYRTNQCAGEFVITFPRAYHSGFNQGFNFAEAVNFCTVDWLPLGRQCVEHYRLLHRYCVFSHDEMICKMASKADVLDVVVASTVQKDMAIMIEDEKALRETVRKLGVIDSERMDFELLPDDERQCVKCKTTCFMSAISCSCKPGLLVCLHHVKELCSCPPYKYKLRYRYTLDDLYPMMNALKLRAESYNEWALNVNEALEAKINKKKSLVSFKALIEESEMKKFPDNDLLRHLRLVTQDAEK
Method in brief: as §4

JMJD2B (KDM4B) = target: T8, JMJD2B (KDM4B) (Homo sapiens, UniProt O94953); assay: Histone lysine demethylase AlphaLISA assay, JMJD2B; conditions: substrate BK9M3, read-out: JMUD2B IC50
T8 construct: 2-500; purchased BPS; host or cells: Bac (baculovirus)
T8 sequence (O94953 2-500): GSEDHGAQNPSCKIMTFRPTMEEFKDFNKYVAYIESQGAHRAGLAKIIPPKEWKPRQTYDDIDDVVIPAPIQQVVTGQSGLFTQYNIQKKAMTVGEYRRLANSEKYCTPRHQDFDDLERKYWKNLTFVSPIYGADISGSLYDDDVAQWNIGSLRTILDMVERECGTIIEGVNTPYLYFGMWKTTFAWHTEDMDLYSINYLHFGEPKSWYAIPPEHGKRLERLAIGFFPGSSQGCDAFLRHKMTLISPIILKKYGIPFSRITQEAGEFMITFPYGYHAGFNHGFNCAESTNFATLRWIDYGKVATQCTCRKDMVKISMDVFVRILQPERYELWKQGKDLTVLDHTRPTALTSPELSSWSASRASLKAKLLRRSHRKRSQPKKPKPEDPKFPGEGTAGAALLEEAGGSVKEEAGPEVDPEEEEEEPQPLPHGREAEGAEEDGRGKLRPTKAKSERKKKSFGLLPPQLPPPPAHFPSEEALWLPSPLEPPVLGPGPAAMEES
Protocol: as §1, §2, §3

T4 sequence (O15550 919-1401): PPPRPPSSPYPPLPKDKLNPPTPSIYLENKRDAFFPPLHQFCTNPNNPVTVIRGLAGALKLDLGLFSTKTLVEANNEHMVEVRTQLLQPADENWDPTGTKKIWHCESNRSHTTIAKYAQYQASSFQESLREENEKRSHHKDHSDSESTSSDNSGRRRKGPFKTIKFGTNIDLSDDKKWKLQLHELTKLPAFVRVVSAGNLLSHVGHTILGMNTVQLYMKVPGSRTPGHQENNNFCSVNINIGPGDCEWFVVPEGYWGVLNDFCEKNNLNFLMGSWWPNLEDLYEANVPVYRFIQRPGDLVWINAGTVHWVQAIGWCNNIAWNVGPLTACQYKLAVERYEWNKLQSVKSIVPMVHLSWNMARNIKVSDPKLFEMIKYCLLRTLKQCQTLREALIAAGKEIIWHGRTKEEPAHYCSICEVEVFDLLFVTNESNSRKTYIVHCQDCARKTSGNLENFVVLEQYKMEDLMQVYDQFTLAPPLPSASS
T2 sequence (O15054 1043-1682 isoform O15054-1 limits assumed): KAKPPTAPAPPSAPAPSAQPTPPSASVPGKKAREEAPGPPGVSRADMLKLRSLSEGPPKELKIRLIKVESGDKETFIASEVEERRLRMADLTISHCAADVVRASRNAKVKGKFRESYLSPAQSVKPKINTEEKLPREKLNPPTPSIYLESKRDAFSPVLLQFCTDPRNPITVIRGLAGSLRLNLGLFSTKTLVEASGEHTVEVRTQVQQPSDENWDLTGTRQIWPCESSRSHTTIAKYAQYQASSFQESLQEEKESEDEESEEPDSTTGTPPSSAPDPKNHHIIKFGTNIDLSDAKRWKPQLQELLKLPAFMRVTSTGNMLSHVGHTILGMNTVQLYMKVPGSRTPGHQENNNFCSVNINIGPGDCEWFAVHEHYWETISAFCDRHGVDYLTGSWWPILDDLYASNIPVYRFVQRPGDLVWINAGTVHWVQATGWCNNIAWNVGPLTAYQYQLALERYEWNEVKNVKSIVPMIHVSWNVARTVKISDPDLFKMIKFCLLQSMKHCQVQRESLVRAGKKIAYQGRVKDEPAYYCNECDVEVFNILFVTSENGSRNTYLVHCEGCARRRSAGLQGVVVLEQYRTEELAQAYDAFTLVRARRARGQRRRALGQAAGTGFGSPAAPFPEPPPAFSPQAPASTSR
T6 sequence (P41229 2-1560): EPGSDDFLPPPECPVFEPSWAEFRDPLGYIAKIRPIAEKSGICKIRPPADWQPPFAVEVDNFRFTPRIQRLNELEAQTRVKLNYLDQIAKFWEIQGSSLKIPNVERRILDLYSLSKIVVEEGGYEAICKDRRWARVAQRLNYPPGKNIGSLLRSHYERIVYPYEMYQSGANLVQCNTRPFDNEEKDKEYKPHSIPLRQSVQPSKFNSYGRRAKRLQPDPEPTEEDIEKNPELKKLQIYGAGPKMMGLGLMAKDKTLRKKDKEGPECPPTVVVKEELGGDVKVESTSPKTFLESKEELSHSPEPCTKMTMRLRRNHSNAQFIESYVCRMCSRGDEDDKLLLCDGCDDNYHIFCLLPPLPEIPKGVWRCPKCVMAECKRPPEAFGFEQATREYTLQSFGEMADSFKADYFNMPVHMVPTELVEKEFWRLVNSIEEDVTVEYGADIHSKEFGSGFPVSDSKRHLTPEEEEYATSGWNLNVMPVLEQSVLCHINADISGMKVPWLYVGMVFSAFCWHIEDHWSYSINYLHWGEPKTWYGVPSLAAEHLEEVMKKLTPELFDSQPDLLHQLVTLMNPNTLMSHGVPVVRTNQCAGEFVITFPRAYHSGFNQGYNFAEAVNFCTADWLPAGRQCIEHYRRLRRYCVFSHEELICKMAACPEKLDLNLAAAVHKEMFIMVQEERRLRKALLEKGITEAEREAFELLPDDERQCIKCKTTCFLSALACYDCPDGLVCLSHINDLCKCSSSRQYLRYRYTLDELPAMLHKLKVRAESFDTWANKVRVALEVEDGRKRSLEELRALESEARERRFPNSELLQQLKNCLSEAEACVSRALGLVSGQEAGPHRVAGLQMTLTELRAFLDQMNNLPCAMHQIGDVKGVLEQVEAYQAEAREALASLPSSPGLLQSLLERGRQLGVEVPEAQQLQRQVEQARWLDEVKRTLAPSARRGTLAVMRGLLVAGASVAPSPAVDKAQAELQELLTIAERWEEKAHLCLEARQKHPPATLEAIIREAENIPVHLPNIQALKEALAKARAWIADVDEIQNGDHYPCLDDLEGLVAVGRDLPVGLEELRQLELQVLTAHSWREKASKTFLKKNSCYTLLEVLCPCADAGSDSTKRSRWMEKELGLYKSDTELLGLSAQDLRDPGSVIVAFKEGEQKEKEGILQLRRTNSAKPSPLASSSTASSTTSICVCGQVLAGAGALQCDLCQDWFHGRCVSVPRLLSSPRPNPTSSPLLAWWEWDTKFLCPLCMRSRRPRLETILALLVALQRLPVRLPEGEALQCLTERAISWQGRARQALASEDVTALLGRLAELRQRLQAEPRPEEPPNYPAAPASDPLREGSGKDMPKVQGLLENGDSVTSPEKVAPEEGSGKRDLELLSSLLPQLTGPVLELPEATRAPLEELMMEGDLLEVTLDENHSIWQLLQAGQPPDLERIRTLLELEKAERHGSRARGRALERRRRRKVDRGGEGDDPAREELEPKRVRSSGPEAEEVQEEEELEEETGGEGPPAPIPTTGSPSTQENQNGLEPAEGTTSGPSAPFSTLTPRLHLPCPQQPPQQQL

IC50 (FBXL10 (KDM2B)) [µM]	IC50 (JMJD3 (KDM6B)) [µM]	IC50 (JMJD2A (KDM4A)) [µM]	IC50 (UTX (KDM6A)) [µM]	IC50 (GASC1 (KDM4C, JMJD2C)) [µM]	IC50 (JARID1C (KDM5C)) [µM]	IC50 (PLU1 (KDM5B)) [µM]	IC50 (JMJD2B (KDM4B)) [µM]	Compound
≥ 1	≥ 1	< 0.1	≥ 1	0.1 to 1	< 0.1			O=C(O)c1ccnc(CNCCCn2ccnc2)c1 [#1, 2-({[3-(1H-imidazol-1-yl)propyl]amino}methyl)pyridine-4-carboxylic acid]
	≥ 1	< 0.1	≥ 1	0.1 to 1	< 0.1	< 0.1	< 0.1	Cn1c(CNCc2cc(C(=O)O)ccn2)nc2ccccc21 [#15, 2-({[(1-methyl-1H-1,3-benzodiazol-2-yl)methyl]amino}methyl)pyridine-4-carboxylic acid]
≥ 1			< 0.1	0.1 to 1		0.1 to 1		CCCCCCCCCCCCCCCC(=O)OCC(COC(=O)CCCCCCCCCCCCCCC)OC(=O)c1ccnc(CNCC(=O)N(CC)CCN(C)C)c1 [#68, 2-(2-{[({[2-(dimethylamino)ethyl](ethyl)carbamoyl}methyl)amino]methyl}pyridine-4-carbonyloxy)-3-(hexadecanoyloxy)propyl hexadecanoate]
≥ 1			< 0.1	< 0.1		< 0.1		CCN(CCN(C)C)C(=O)CNCc1cc(C(=O)OC)ccn1 [#70, methyl 2-{[({[2-(dimethylamino)ethyl](ethyl)carbamoyl}methyl)amino]methyl}pyridine-4-carboxylate]
0.1 to 1			≥ 1	< 0.1		< 0.1		CCN(CCN(C)C)C(=O)CNCc1cc(C(=O)N(C)S(C)(=O)=O)ccn1 [#71, 2-{[({[2-(dimethylamino)ethyl](ethyl)carbamoyl}methyl)amino]methyl}-N-methanesulfonyl-N-methylpyridine-4-carboxamide]
0.1 to 1			< 0.1	≥ 1		≥ 1		CC(C)CN(CC(=O)N1CCCCC1)Cc1cc(C(=O)O)ccn1 [#86, 2-{[(2-methylpropyl)[2-oxo-2-(piperidin-1-yl)ethyl]amino]methyl}pyridine-4-carboxylic acid]
0.1 to 1			< 0.1	≥ 1		0.1 to 1		CCCN(CC(=O)N1CCCCC1)Cc1cc(C(=O)O)ccn1 [#87, 2-({[2-oxo-2-(piperidin-1-yl)ethyl](propyl)amino}methyl)pyridine-4-carboxylic acid]
0.1 to 1			< 0.1	≥ 1		≥ 1		CC(C)N(CC(=O)N1CCCCC1)Cc1cc(C(=O)O)ccn1 [#88, 2-({[2-oxo-2-(piperidin-1-yl)ethyl](propan-2-yl)amino}methyl)pyridine-4-carboxylic acid]
≥ 1			< 0.1	0.1 to 1		< 0.1		CCN(CCN(C)C)C(=O)CNCc1cc(C(=O)OCCF)ccn1 [#90, 2-fluoroethyl 2-{[({[2-(dimethylamino)ethyl](ethyl)carbamoyl}methyl)amino]methyl}pyridine-4-carboxylate]
≥ 1			< 0.1	< 0.1		< 0.1		CCN(CCN(C)C)C(=O)CNCc1cc(C(=O)OCC(F)F)ccn1 [#91, 2,2-difluoroethyl 2-{[({[2-(dimethylamino)ethyl](ethyl)carbamoyl}methyl)amino]methyl}pyridine-4-carboxylate]
0.1 to 1			0.1 to 1	≥ 1		≥ 1		CC(C)C[C@H](NCc1cc(C(=O)O)ccn1)C(=O)NC(C)(C)C [#92, 2-({[(1S)-1-(tert-butylcarbamoyl)-3-methylbutyl]amino}methyl)pyridine-4-carboxylic acid]
